Source: ChEMBL document CHEMBL3585263, “Novel Octahydropyrrolo[3,4-c]pyrroles Are Selective Orexin-2 Antagonists: SAR Leading to a Clinical Candidate” (J Med Chem, 2015)

Biological target: T1, Orexin/Hypocretin receptor type 1 (Homo sapiens, UniProt O43613)
T1 sequence (O43613 whole entry): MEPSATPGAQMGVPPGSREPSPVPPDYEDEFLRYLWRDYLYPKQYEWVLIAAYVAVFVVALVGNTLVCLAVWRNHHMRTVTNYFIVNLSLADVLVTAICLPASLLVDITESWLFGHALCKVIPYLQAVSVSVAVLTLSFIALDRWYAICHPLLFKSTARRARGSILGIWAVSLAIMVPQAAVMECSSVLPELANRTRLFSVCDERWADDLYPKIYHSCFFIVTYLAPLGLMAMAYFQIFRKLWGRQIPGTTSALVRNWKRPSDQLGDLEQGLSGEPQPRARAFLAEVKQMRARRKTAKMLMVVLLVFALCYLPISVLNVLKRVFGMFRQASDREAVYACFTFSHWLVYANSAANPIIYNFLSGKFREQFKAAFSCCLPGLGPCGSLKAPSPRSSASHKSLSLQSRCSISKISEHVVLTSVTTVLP
Experiment: Binding affinity to human OX1 receptor expressed in CHO cell membranes by scintillation counting analysis

COc1cccc(OC)c1C(=O)N1CCCN(c2nc3ccc(Cl)cc3s2)CC1
Ki: 216 nM
